Entries after “also recorded” stand apart in the source; their conditions may differ.
Columns and labels:
[1] = test system: Chinese hamster ovary cells; test: chromosomal aberrations in cultured Chinese hamster ovary cells; format: cell-based; details: doses tested 12-140 mg/ml
Escherichia coli = test: tests for mutagenic activity in bacterial strains; format: cell-based; details: 3-1000 mg/plate (TTA), 2-5000 mg/plate (TSA)
Procedure: (§1) Covance Laboratories Limited, England, has performed tests for mutagenic activity. […] Furthermore, TTA was not mutagenic when tested in mouse lymphoma cells […] L5178Y.
(§2) The concentration of the compounds tested in S. typhimurium and E. coli were 3-1000 mg/plate (TTA) 2-5000 mg/plate (TSA). In mouse lymphoma cells, L5178Y, the concentration was 2,5-50 mg/ml.

Salmonella typhimurium = test: tests for mutagenic activity in bacterial strains; format: cell-based; details: 3-1000 mg/plate (TTA), 2-5000 mg/plate (TSA)
Procedure: as §1, §2

[2] = test system: mouse lymphoma cells, L5178Y; test: mutagenicity test in mouse lymphoma cells; format: cell-based; details: 2,5-50 mg/ml
Procedure: as §1, §2

[3] = 28 days toxicity study in dogs (GLP); format: in vivo
From the text: A 28 days toxicity study in dogs according to GLP guidelines has been performed by Corning Hazleton (Europe), England. […] Some lipid related parameters were lowered in the animals given high dosages. This is consistent with the pharmacological activity of TTA.

BT4Cn tumours = test: survival of rats with intracranially implanted BT4Cn tumours; format: in vivo
Procedure: Mail Norwegian brown rats, BD IX, were used as described in example 5. The TTA was administered by oro-gastric intubation.
The tumour was implanted by stereotactical transplantation. The rats were anaesthetised with 0.4 ml Equithesin/100 g body weight. A skin incision was made, blood was removed by H2O2 and the scull was trephined using a dental drill.
The burr hole was localized 3.3 mm posterior to the coronal suture and 2.5 mm lateral to the sagittal suture.
Cells were harvested and counted as described above (Section 5.3), and then diluted in DPBS to a final concentration on 20.000 cells/μl. 2 μl cell suspension was injected with a Hamilton syringe with a cone-tipped 0.7 mm needle at a depth of 2.8 mm. The skin was closed with steel staples, and the animals were returned to their cages.

D-54MG cells = test: cell migration out from attached spheroids; format: cell-based, human; details: D-54MG spheroids, 100 μM, 3 days of culture, DMEM; data not shown
Procedure: (§3) To compare the effect of the different fatty acid analogues on tumour spheroid growth, both D-54Mg and GaMg spheroids were transferred individually into 16 mm 24-well dishes base coated with 0.5 ml 0.75% DMEM-agar. D-54Mg and GaMg are human cell lines. The D-54Mg cell line was derived from a mixed anaplastic glioma and was kindly supplied by Dr. Darell D. Bigner, Duke University, Durham, N.C. The GaMg cell line was established in our laboratory and has been described in detail elsewhere (Bjerkvik et al.: Anticancer research 1998: vol 8, p 797-803). The spheroids were divided into 5 groups with 4 spheroids in each group. Four groups were treated with the different fatty acid analogues at a final fatty acid concentration of either 100 or 250 μM. […] The volume of the overlay suspension was 1.0 ml. The size of the spheroids were determined every second day be measuring two orthogonal diameters using an inverted phase contrast microscope with a calibrated reticle in the eye-piece. This was done during a 14-day period.
(§4) The effect of the fatty acid analogues on cell migration was studied by measuring the ability of cells to migrate out from spheroids that had attached to a plastic surface. […] The size of the outgrowth area was then determined by using a Kontron morphometry system (Kontron, Eching, Germany). […]

GaMg cells = test: cell migration out from attached spheroids; format: cell-based, human; details: 100 μM, 3 days of culture, DMEM, data not shown
Procedure: as §3, §4

Row | Molecule | chromosomal aberrations [1] | induction of mutations (Escherichia coli) | induction of mutations (Salmonella typhimurium) | mutagenicity [2] | lipid related parameters ([3]; animals given high dosages) | tolerability ([3]; oral administration, dose levels up to 500 mg/kg/day) | evidence of toxicity ([3]; oral, dose levels of 50 or 500 mg/day/kg) | overall survival (BT4Cn tumours) | migratory capacity (D-54MG cells) | migratory capacity (GaMg cells)
1 | CCCCCCCCCCCCCC[Se]CC(=O)O [TSA, tetradecylselenioacetic acid] | no aberrations were induced | did not induce mutations; also recorded: not to be mutagenic | did not induce mutations; also recorded: not to be mutagenic |  |  |  |  |  |  | 
2 | Tetradecylthioacetic acid [TTA] |  | did not induce mutations | did not induce mutations | not mutagenic | lowered | generally well tolerated | no evidence of toxicity | substantially increased | severely inhibited | severely inhibited
